Measurements reported in ChEMBL document CHEMBL1131542, “A potent dipeptide inhibitor of dipeptidyl peptidase IV” (Bioorg Med Chem Lett, 1998).
Square brackets hold non-standard residues; d marks the D form. Peptide text beside a SMILES is read from it. Tic = O=C(O)[C@@H]1Cc2ccccc2CN1

The compounds below were run against T1, Dipeptidyl peptidase 4 (Homo sapiens, UniProt P27487) (assay: Percent inhibition against Dipeptidylpeptidase IV (DPP IV) at a concentration of 10 uM).
Target sequence in this assay (P27487 whole entry, looked up): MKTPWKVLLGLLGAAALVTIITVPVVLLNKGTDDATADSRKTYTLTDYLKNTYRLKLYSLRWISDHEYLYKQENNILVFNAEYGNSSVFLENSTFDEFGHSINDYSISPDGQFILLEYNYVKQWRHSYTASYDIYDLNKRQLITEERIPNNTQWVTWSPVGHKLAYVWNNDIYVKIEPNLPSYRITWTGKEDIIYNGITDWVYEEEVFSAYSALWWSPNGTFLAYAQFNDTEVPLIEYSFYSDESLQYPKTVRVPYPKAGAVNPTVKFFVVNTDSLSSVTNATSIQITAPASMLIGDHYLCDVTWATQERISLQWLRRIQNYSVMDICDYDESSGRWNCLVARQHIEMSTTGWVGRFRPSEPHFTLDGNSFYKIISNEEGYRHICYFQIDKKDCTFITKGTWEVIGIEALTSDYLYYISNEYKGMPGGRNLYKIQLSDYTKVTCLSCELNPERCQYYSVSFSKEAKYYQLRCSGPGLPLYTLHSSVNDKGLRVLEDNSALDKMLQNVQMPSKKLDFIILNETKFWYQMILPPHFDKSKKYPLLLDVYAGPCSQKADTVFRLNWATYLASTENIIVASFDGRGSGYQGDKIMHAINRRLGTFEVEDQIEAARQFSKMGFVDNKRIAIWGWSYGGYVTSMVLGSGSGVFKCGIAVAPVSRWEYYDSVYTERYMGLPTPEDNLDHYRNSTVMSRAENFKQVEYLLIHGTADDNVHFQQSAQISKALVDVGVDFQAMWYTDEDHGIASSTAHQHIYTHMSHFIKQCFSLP

Row | inhibition [%] | SMILES
1 | 7.7 | COc1c(O)cc2c(c1O)CN(C(=O)[C@@H](N)Cc1c[nH]c3ccccc13)[C@H](C(=O)N[C@@H](CC(CO)CO)C(=O)O)C2

Each compound was assayed against T1, Dipeptidyl peptidase 4 (assay: Inhibitory concentration against Dipeptidyl peptidase IV (DPP IV)).
Target sequence in this assay (P27487 whole entry): as the sequence (P27487 whole entry, looked up) above

Row | IC50 [µM] | SMILES
2 | 7 | N[C@@H](Cc1c[nH]c2ccccc12)C(=O)N1Cc2ccccc2C[C@H]1C(=O)N[C@@H](CCC(=O)O)C(=O)O (H-Trp-[Tic]-Glu-OH)
3 | 7.9 | N[C@@H](Cc1c[nH]c2ccccc12)C(=O)N1Cc2ccccc2C[C@H]1C(=O)N[C@@H](CO)C(=O)O (H-Trp-[Tic]-Ser-OH)
4 | 5.7 | N[C@@H](Cc1c[nH]c2ccccc12)C(=O)N1Cc2ccccc2C[C@H]1C(=O)O (H-Trp-[Tic]-OH)

The compounds below were run against T1, Dipeptidyl peptidase 4 (assay: Percent inhibition of Dipeptidyl peptidase IV (DPP IV) at a concentration of 10 uM).
Target sequence in this assay (P27487 whole entry, looked up): as above

Row | inhibition [%] | SMILES
5 | 62 | N[C@@H](Cc1c[nH]c2ccccc12)C(=O)N1Cc2ccccc2C[C@H]1C(=O)N[C@@H](CCC(=O)O)C(=O)O (H-Trp-[Tic]-Glu-OH)
6 | 53 | N[C@@H](Cc1c[nH]c2ccccc12)C(=O)N1Cc2ccccc2C[C@H]1C(=O)N[C@@H](CO)C(=O)O (H-Trp-[Tic]-Ser-OH)
7 | 59 | N[C@@H](Cc1c[nH]c2ccccc12)C(=O)N1Cc2ccccc2C[C@H]1C(=O)O (H-Trp-[Tic]-OH)

What follows are compounds tested against T1, Dipeptidyl peptidase 4 (assay: Percent inhibition against Dipeptidyl peptidase IV (DPP IV) at a concentration of 1 uM).
Target sequence in this assay (P27487 whole entry, looked up): as above

Row | inhibition [%] | SMILES
8 | 7 | CC[C@H](C)[C@H](NC(=O)[C@H](Cc1c[nH]cn1)NC(=O)CNC(=O)[C@H](CCC(=O)O)NC(=O)[C@H](CCC(N)=O)NC(=O)[C@H](CC(=O)O)NC(=O)[C@H](CC(N)=O)NC(=O)[C@H](CCCN=C(N)N)NC(=O)[C@H](C)NC(=O)[C@@H]1Cc2ccccc2CN1C(=O)[C@@H](N)CC(C)C)C(=O)N[C@@H](CC(C)C)C(=O)N[C@@H](CCCCN)C(=O)N[C@@H](CCSC)C(=O)N[C@@H](Cc1ccccc1)C(=O)N1CCC[C@H]1C(=O)N[C@@H](CO)C(=O)N[C@H](C(=O)N[C@@H](Cc1c[nH]c2ccccc12)C(=O)N[C@@H](Cc1ccc(O)cc1)C(=O)N[C@H](C(=O)O)C(C)C)[C@@H](C)O (H-L[Tic]ARNDQEGHILKMFPSTWYV-OH)
9 | 7 | CC[C@H](C)[C@H](NC(=O)[C@H](Cc1c[nH]cn1)NC(=O)CNC(=O)[C@H](CCC(=O)O)NC(=O)[C@H](CCC(N)=O)NC(=O)[C@H](CC(=O)O)NC(=O)[C@H](CC(N)=O)NC(=O)[C@H](CCCN=C(N)N)NC(=O)[C@H](C)NC(=O)[C@@H]1Cc2ccccc2CN1C(=O)[C@@H](N)Cc1c[nH]cn1)C(=O)N[C@@H](CC(C)C)C(=O)N[C@@H](CCCCN)C(=O)N[C@@H](CCSC)C(=O)N[C@@H](Cc1ccccc1)C(=O)N1CCC[C@H]1C(=O)N[C@@H](CO)C(=O)N[C@H](C(=O)N[C@@H](Cc1c[nH]c2ccccc12)C(=O)N[C@@H](Cc1ccc(O)cc1)C(=O)N[C@H](C(=O)O)C(C)C)[C@@H](C)O (H-H[Tic]ARNDQEGHILKMFPSTWYV-OH)
10 | 9 | CC[C@H](C)[C@H](NC(=O)[C@H](Cc1c[nH]cn1)NC(=O)CNC(=O)[C@H](CCC(=O)O)NC(=O)[C@H](CCC(N)=O)NC(=O)[C@H](CC(=O)O)NC(=O)[C@H](CC(N)=O)NC(=O)[C@H](CCCN=C(N)N)NC(=O)[C@H](C)NC(=O)[C@@H]1Cc2ccccc2CN1C(=O)[C@@H](N)CC(N)=O)C(=O)N[C@@H](CC(C)C)C(=O)N[C@@H](CCCCN)C(=O)N[C@@H](CCSC)C(=O)N[C@@H](Cc1ccccc1)C(=O)N1CCC[C@H]1C(=O)N[C@@H](CO)C(=O)N[C@H](C(=O)N[C@@H](Cc1c[nH]c2ccccc12)C(=O)N[C@@H](Cc1ccc(O)cc1)C(=O)N[C@H](C(=O)O)C(C)C)[C@@H](C)O (H-N[Tic]ARNDQEGHILKMFPSTWYV-OH)
11 | 3 | CC[C@H](C)[C@H](NC(=O)[C@H](Cc1c[nH]cn1)NC(=O)CNC(=O)[C@H](CCC(=O)O)NC(=O)[C@H](CCC(N)=O)NC(=O)[C@H](CC(=O)O)NC(=O)[C@H](CC(N)=O)NC(=O)[C@H](CCCN=C(N)N)NC(=O)[C@H](C)NC(=O)[C@@H]1Cc2ccccc2CN1C(=O)[C@@H](N)C(C)C)C(=O)N[C@@H](CC(C)C)C(=O)N[C@@H](CCCCN)C(=O)N[C@@H](CCSC)C(=O)N[C@@H](Cc1ccccc1)C(=O)N1CCC[C@H]1C(=O)N[C@@H](CO)C(=O)N[C@H](C(=O)N[C@@H](Cc1c[nH]c2ccccc12)C(=O)N[C@@H](Cc1ccc(O)cc1)C(=O)N[C@H](C(=O)O)C(C)C)[C@@H](C)O (H-V[Tic]ARNDQEGHILKMFPSTWYV-OH)
12 | 10 | CC[C@H](C)[C@H](NC(=O)[C@H](Cc1c[nH]cn1)NC(=O)CNC(=O)[C@H](CCC(=O)O)NC(=O)[C@H](CCC(N)=O)NC(=O)[C@H](CC(=O)O)NC(=O)[C@H](CC(N)=O)NC(=O)[C@H](CCCN=C(N)N)NC(=O)[C@H](C)NC(=O)[C@@H]1Cc2ccccc2CN1C(=O)[C@@H](N)CCCN=C(N)N)C(=O)N[C@@H](CC(C)C)C(=O)N[C@@H](CCCCN)C(=O)N[C@@H](CCSC)C(=O)N[C@@H](Cc1ccccc1)C(=O)N1CCC[C@H]1C(=O)N[C@@H](CO)C(=O)N[C@H](C(=O)N[C@@H](Cc1c[nH]c2ccccc12)C(=O)N[C@@H](Cc1ccc(O)cc1)C(=O)N[C@H](C(=O)O)C(C)C)[C@@H](C)O (H-R[Tic]ARNDQEGHILKMFPSTWYV-OH)
13 | 6 | CC[C@H](C)[C@H](NC(=O)[C@H](Cc1c[nH]cn1)NC(=O)CNC(=O)[C@H](CCC(=O)O)NC(=O)[C@H](CCC(N)=O)NC(=O)[C@H](CC(=O)O)NC(=O)[C@H](CC(N)=O)NC(=O)[C@H](CCCN=C(N)N)NC(=O)[C@H](C)NC(=O)[C@@H]1Cc2ccccc2CN1C(=O)[C@@H](N)CCSC)C(=O)N[C@@H](CC(C)C)C(=O)N[C@@H](CCCCN)C(=O)N[C@@H](CCSC)C(=O)N[C@@H](Cc1ccccc1)C(=O)N1CCC[C@H]1C(=O)N[C@@H](CO)C(=O)N[C@H](C(=O)N[C@@H](Cc1c[nH]c2ccccc12)C(=O)N[C@@H](Cc1ccc(O)cc1)C(=O)N[C@H](C(=O)O)C(C)C)[C@@H](C)O (H-M[Tic]ARNDQEGHILKMFPSTWYV-OH)
14 | 4 | CC[C@H](C)[C@H](NC(=O)[C@H](Cc1c[nH]cn1)NC(=O)CNC(=O)[C@H](CCC(=O)O)NC(=O)[C@H](CCC(N)=O)NC(=O)[C@H](CC(=O)O)NC(=O)[C@H](CC(N)=O)NC(=O)[C@H](CCCN=C(N)N)NC(=O)[C@H](C)NC(=O)[C@@H]1Cc2ccccc2CN1C(=O)[C@@H](N)CCC(N)=O)C(=O)N[C@@H](CC(C)C)C(=O)N[C@@H](CCCCN)C(=O)N[C@@H](CCSC)C(=O)N[C@@H](Cc1ccccc1)C(=O)N1CCC[C@H]1C(=O)N[C@@H](CO)C(=O)N[C@H](C(=O)N[C@@H](Cc1c[nH]c2ccccc12)C(=O)N[C@@H](Cc1ccc(O)cc1)C(=O)N[C@H](C(=O)O)C(C)C)[C@@H](C)O (H-Q[Tic]ARNDQEGHILKMFPSTWYV-OH)
15 | 8 | CC[C@H](C)[C@H](NC(=O)[C@H](Cc1c[nH]cn1)NC(=O)CNC(=O)[C@H](CCC(=O)O)NC(=O)[C@H](CCC(N)=O)NC(=O)[C@H](CC(=O)O)NC(=O)[C@H](CC(N)=O)NC(=O)[C@H](CCCN=C(N)N)NC(=O)[C@H](C)NC(=O)[C@@H]1Cc2ccccc2CN1C(=O)[C@@H](N)CC(=O)O)C(=O)N[C@@H](CC(C)C)C(=O)N[C@@H](CCCCN)C(=O)N[C@@H](CCSC)C(=O)N[C@@H](Cc1ccccc1)C(=O)N1CCC[C@H]1C(=O)N[C@@H](CO)C(=O)N[C@H](C(=O)N[C@@H](Cc1c[nH]c2ccccc12)C(=O)N[C@@H](Cc1ccc(O)cc1)C(=O)N[C@H](C(=O)O)C(C)C)[C@@H](C)O (H-D[Tic]ARNDQEGHILKMFPSTWYV-OH)
16 | 9 | CC[C@H](C)[C@H](NC(=O)[C@H](Cc1c[nH]cn1)NC(=O)CNC(=O)[C@H](CCC(=O)O)NC(=O)[C@H](CCC(N)=O)NC(=O)[C@H](CC(=O)O)NC(=O)[C@H](CC(N)=O)NC(=O)[C@H](CCCN=C(N)N)NC(=O)[C@H](C)NC(=O)[C@@H]1Cc2ccccc2CN1C(=O)[C@@H](N)CS)C(=O)N[C@@H](CC(C)C)C(=O)N[C@@H](CCCCN)C(=O)N[C@@H](CCSC)C(=O)N[C@@H](Cc1ccccc1)C(=O)N1CCC[C@H]1C(=O)N[C@@H](CO)C(=O)N[C@H](C(=O)N[C@@H](Cc1c[nH]c2ccccc12)C(=O)N[C@@H](Cc1ccc(O)cc1)C(=O)N[C@H](C(=O)O)C(C)C)[C@@H](C)O (H-C[Tic]ARNDQEGHILKMFPSTWYV-OH)
17 | 17 | CC[C@H](C)[C@H](NC(=O)[C@H](Cc1c[nH]cn1)NC(=O)CNC(=O)[C@H](CCC(=O)O)NC(=O)[C@H](CCC(N)=O)NC(=O)[C@H](CC(=O)O)NC(=O)[C@H](CC(N)=O)NC(=O)[C@H](CCCN=C(N)N)NC(=O)[C@H](C)NC(=O)[C@@H]1Cc2ccccc2CN1C(=O)[C@@H](N)[C@@H](C)O)C(=O)N[C@@H](CC(C)C)C(=O)N[C@@H](CCCCN)C(=O)N[C@@H](CCSC)C(=O)N[C@@H](Cc1ccccc1)C(=O)N1CCC[C@H]1C(=O)N[C@@H](CO)C(=O)N[C@H](C(=O)N[C@@H](Cc1c[nH]c2ccccc12)C(=O)N[C@@H](Cc1ccc(O)cc1)C(=O)N[C@H](C(=O)O)C(C)C)[C@@H](C)O (H-T[Tic]ARNDQEGHILKMFPSTWYV-OH)
18 | 6 | CC[C@H](C)[C@H](N)C(=O)N1Cc2ccccc2C[C@H]1C(=O)N[C@@H](C)C(=O)N[C@@H](CCCN=C(N)N)C(=O)N[C@@H](CC(N)=O)C(=O)N[C@@H](CC(=O)O)C(=O)N[C@@H](CCC(N)=O)C(=O)N[C@@H](CCC(=O)O)C(=O)NCC(=O)N[C@@H](Cc1c[nH]cn1)C(=O)N[C@H](C(=O)N[C@@H](CC(C)C)C(=O)N[C@@H](CCCCN)C(=O)N[C@@H](CCSC)C(=O)N[C@@H](Cc1ccccc1)C(=O)N1CCC[C@H]1C(=O)N[C@@H](CO)C(=O)N[C@H](C(=O)N[C@@H](Cc1c[nH]c2ccccc12)C(=O)N[C@@H](Cc1ccc(O)cc1)C(=O)N[C@H](C(=O)O)C(C)C)[C@@H](C)O)[C@@H](C)CC (H-I[Tic]ARNDQEGHILKMFPSTWYV-OH)
19 | 7 | CC[C@H](C)[C@H](NC(=O)[C@H](Cc1c[nH]cn1)NC(=O)CNC(=O)[C@H](CCC(=O)O)NC(=O)[C@H](CCC(N)=O)NC(=O)[C@H](CC(=O)O)NC(=O)[C@H](CC(N)=O)NC(=O)[C@H](CCCN=C(N)N)NC(=O)[C@H](C)NC(=O)[C@@H]1Cc2ccccc2CN1C(=O)[C@@H](N)CCCCN)C(=O)N[C@@H](CC(C)C)C(=O)N[C@@H](CCCCN)C(=O)N[C@@H](CCSC)C(=O)N[C@@H](Cc1ccccc1)C(=O)N1CCC[C@H]1C(=O)N[C@@H](CO)C(=O)N[C@H](C(=O)N[C@@H](Cc1c[nH]c2ccccc12)C(=O)N[C@@H](Cc1ccc(O)cc1)C(=O)N[C@H](C(=O)O)C(C)C)[C@@H](C)O (H-K[Tic]ARNDQEGHILKMFPSTWYV-OH)
